Test results as given in patent publication US20230278972A1, “SUBSTITUTED HALOALKYL SULFONANILIDE HERBICIDES” (FMC Corporation, priority 2020, published 2023).

Tests used:
Format in all cases: in vivo
[1] = tested on: ragweed (common ragweed, Ambrosia artemisiifolia); test: Test A postemergence, ragweed; settings: Postemergence, 0 to 100 scale (0 no effect, 100 complete control)
In short: (§1)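 Compounds in non-phytotoxic solvent with surfactant. Soil: loam/sand. Preemergence via directed soil spray after seeding; postemergence on seedlings 2–10 cm, one- to two-leaf.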

[2] = tested on: barnyardgrass (Echinochloa crus-galli); test: Test A postemergence, barnyardgrass; settings: Postemergence, 0 to 100 scale (0 no effect, 100 complete control)
In short: (§2)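 Pots: loam soil/sand blend. Pre: directed soil spray at planting. Post: plants 2–10 cm, 1–2 leaf stage. Formulation: non-phytotoxic solvent + surfactant.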

[3] = tested on: Ryegrass, Italian (Italian ryegrass, Lolium multiflorum); test: Test A preemergence, Ryegrass, Italian; settings: Preemergence; for Plant response rating, Ryegrass, Italian: 31 g ai/ha, visual injury, 0 to 100 scale (0 no effect, 100 complete control), approx. 10 days; for Ryegrass, Italian plant response rating: 125 g ai/ha, visual injury on 0 to 100 scale (0 no effect, 100 complete control), approximately 10 days
In short: as §1

[4] = tested on: ragweed (common ragweed, Ambrosia artemisiifolia); test: Test A preemergence, ragweed; settings: Preemergence; for Plant response rating, Ragweed: 31 g ai/ha, visual injury, 0 to 100 scale (0 no effect, 100 complete control), approx. 10 days; for Ragweed plant response rating: 125 g ai/ha, visual injury on 0 to 100 scale (0 no effect, 100 complete control), approximately 10 days
In short: as §1

[5] = tested on: kochia (Bassia scoparia); test: Test A postemergence, kochia; settings: Postemergence, 0 to 100 scale (0 no effect, 100 complete control)
In short: as §1

[6] = tested on: pigweed (Amaranthus retroflexus); test: Test A preemergence, pigweed; settings: for Plant response rating, Pigweed: 31 g ai/ha, visual injury, 0 to 100 scale (0 no effect, 100 complete control), approx. 10 days; for Pigweed plant response rating: 125 g ai/ha, visual injury on 0 to 100 scale (0 no effect, 100 complete control), approximately 10 days
In short: as §2

[7] = tested on: pigweed (Amaranthus retroflexus); test: Test A postemergence, pigweed; settings: Postemergence, 0 to 100 scale (0 no effect, 100 complete control)
In short: as §1

[8] = tested on: galium (catchweed bedstraw, Galium aparine); test: Test A postemergence, galium; settings: Postemergence, 0 to 100 scale (0 no effect, 100 complete control)
In short: as §2

[9] = tested on: Foxtail, Giant (giant foxtail, Setaria faberi); test: Test A postemergence, Foxtail, Giant; settings: Postemergence, 0 to 100 scale (0 no effect, 100 complete control)
In short: as §1

[10] = tested on: Foxtail, Giant (giant foxtail, Setaria faberi); test: Test A preemergence, Foxtail, Giant; settings: Preemergence; for Plant response rating, Foxtail, Giant: 31 g ai/ha, visual injury, 0 to 100 scale (0 no effect, 100 complete control), approx. 10 days; for Foxtail, Giant plant response rating: 125 g ai/ha, visual injury on 0 to 100 scale (0 no effect, 100 complete control), approximately 10 days
In short: as §1

[11] = tested on: Ryegrass, Italian (Italian ryegrass, Lolium multiflorum); test: Test A postemergence, Ryegrass, Italian; settings: Postemergence, 0 to 100 scale (0 no effect, 100 complete control)
In short: as §1

[12] = tested on: blackgrass (Alopecurus myosuroides); test: Test A postemergence, blackgrass; settings: Postemergence, 0 to 100 scale (0 no effect, 100 complete control)
In short: as §1

[13] = tested on: wheat (Triticum aestivum); test: Test A postemergence, wheat; settings: Postemergence, 0 to 100 scale (0 no effect, 100 complete control)
In short: as §2

[14] = tested on: kochia (Bassia scoparia); test: Test A preemergence, kochia; settings: Preemergence; for Plant response rating, Kochia: 31 g ai/ha, visual injury, 0 to 100 scale (0 no effect, 100 complete control), approx. 10 days; for Kochia plant response rating: 125 g ai/ha, visual injury on 0 to 100 scale (0 no effect, 100 complete control), approximately 10 days
In short: as §1

[15] = tested on: corn (Zea mays); test: Test A postemergence, corn; settings: Postemergence, 0 to 100 scale (0 no effect, 100 complete control)
In short: as §1

[16] = tested on: barnyardgrass (Echinochloa crus-galli); test: Test A preemergence, barnyardgrass; settings: Preemergence; for Plant response rating, Barnyardgrass: 31 g ai/ha, visual injury, 0 to 100 scale (0 no effect, 100 complete control), approx. 10 days; for Barnyardgrass plant response rating: 125 g ai/ha, visual injury on 0 to 100 scale (0 no effect, 100 complete control), approximately 10 days
In short: as §1

[17] = 125 g ai/ha, visual injury approx. 10 days

SMILES	Plant response rating, Ragweed ([1]; 31 g ai/ha)	Plant response rating, Ragweed [1, 17]	Plant response rating, Barnyardgrass ([2]; 31 g ai/ha)	Plant response rating, Barnyardgrass [2, 17]	Plant response rating, Ryegrass, Italian [3]	Ryegrass, Italian plant response rating [3]	Plant response rating, Ragweed [4]	Ragweed plant response rating [4]	Plant response rating, Kochia ([5]; 31 g ai/ha)	Plant response rating, Kochia [5, 17]	Plant response rating, Pigweed [6]	Pigweed plant response rating [6]	Plant response rating, Pigweed ([7]; 31 g ai/ha)	Plant response rating, Pigweed [7, 17]	Plant response rating, Galium ([8]; 31 g ai/ha)	Plant response rating, Galium [8, 17]	Plant response rating, Foxtail, Giant ([9]; 31 g ai/ha)	Plant response rating, Foxtail, Giant [9, 17]	Plant response rating, Foxtail, Giant [10]	Foxtail, Giant plant response rating [10]	also measured
COC1CCCN(C(=O)c2cc(N(C(C)=O)S(=O)(=O)C(F)(F)F)c(C)cc2C)C1 (stereo not drawn) [Compound 93]	30	30	0	60	0	80	0	70	10	30	50	100	30	50	80	80	0	10	60	80	Plant response rating, Ryegrass, Italian ([11]; 31 g ai/ha): 0; Plant response rating, Ryegrass, Italian [11, 17]: 20; Plant response rating, Blackgrass ([12]; 31 g ai/ha): 20; Plant response rating, Blackgrass [12, 17]: 70; Plant response rating, Wheat ([13]; 31 g ai/ha): 30; Plant response rating, Wheat [13, 17]: 60; Plant response rating, Kochia [14]: 0; Kochia plant response rating [14]: 50; Plant response rating, Corn ([15]; 31 g ai/ha): 0; Plant response rating, Corn [15, 17]: 20; Plant response rating, Barnyardgrass [16]: 0; Barnyardgrass plant response rating [16]: 80
CO[C@@H]1CCCN(C(=O)c2cc(NS(=O)(=O)C(F)(F)F)c(C)cc2C)C1 [Compound 94]	10	40	20	60	30	90	0	30	10	50	100	100	50	80	70	90	0	30	50	100	Plant response rating, Ryegrass, Italian ([11]; 31 g ai/ha): 20; Plant response rating, Ryegrass, Italian [11, 17]: 50; Plant response rating, Blackgrass ([12]; 31 g ai/ha): 0; Plant response rating, Blackgrass [12, 17]: 20; Plant response rating, Wheat ([13]; 31 g ai/ha): 10; Plant response rating, Wheat [13, 17]: 50; Plant response rating, Kochia [14]: 0; Kochia plant response rating [14]: 60; Plant response rating, Corn ([15]; 31 g ai/ha): 0; Plant response rating, Corn [15, 17]: 20; Plant response rating, Barnyardgrass [16]: 10; Barnyardgrass plant response rating [16]: 90
CO[C@@H]1CCCN(C(=O)c2cc(N(S(=O)(=O)C(F)(F)F)S(=O)(=O)C(F)(F)F)c(C)cc2C)C1 [Compound 95]	0	0	0	30	20	90	0	60	10	30	70	90	40	80	40	80	0	0	90	100	Plant response rating, Ryegrass, Italian ([11]; 31 g ai/ha): 0; Plant response rating, Ryegrass, Italian [11, 17]: 0; Plant response rating, Blackgrass ([12]; 31 g ai/ha): 0; Plant response rating, Blackgrass [12, 17]: 0; Plant response rating, Wheat ([13]; 31 g ai/ha): 0; Plant response rating, Wheat [13, 17]: 10; Plant response rating, Kochia [14]: 0; Kochia plant response rating [14]: 10; Plant response rating, Corn ([15]; 31 g ai/ha): 0; Plant response rating, Corn [15, 17]: 20; Plant response rating, Barnyardgrass [16]: 10; Barnyardgrass plant response rating [16]: 80
